{"source": "patent US9623065B2", "about": "“Kind of polygonum capitatum extract, its application and a preparation containing the polygonum capitatum extract” (Zhejiang Sanzheng Biotechnology Co., Ltd., priority 2013, dated 2017)", "key": {"[1]": {"test_system": "alloxan hyperglycemia model mice", "experiment": "Blood glucose of alloxan hyperglycemia model mice, comparison of extraction methods (Test Case 4)", "assay_type": "in vivo, KM mice", "conditions": "dose 0.5 mg, fasting", "method": "Take 460 KM mice, with a weight of (20±2) g, half male and half female, let them to adapt to the environment for 7 days. Randomly select 6 male mice and 6 female mice as the blank control group, keep them fasted but water is supplied to them for 18 hours, use the physiological saline to prepare the 1.1% alloxan, and store it in an ice water bath. Carry out the intraperitoneal injection according to the ratio of 110 mg/kg, the control group is injected with the isodose physiological saline, let them eat after 1 h recovery. Use the same modeling method in the second day. 3 days later (72 h, normal diet), then fasting 12 hours, and then cut their tails to take a few drops of blood, and then fasting blood glucose is measured with glucose oxidase method, the mice with the blood glucose value greater than 11.1 mmol/L are the mice that successfully modeled.\nAmong the 460 KM mice, 12 of them belong to the blank control group, the remaining mice are used to modeling. After the modeling the mice with the blood glucose values measured greater than 11.1 mmol/L. In the design process each experimental group has 12 mice.\nTake the model mice, randomly divide then into 16 groups, namely the water extraction (high, medium and low) dose group, the alcohol extraction (high, medium and low) dose group, the water and alcohol extraction (high, medium and low) dose group, the modeling group, positive group and blank control group (normal mice), please refer to Table 1.\nUse surgical scissors to cut 2-3 mm of a mouse tail, press the tail to take a few drops of blood and place in the EP tube, first add 12 μL 15 g/L bipotassium EDTA solution, high speed centrifuge it (10000 r/min) for 5 min. Wait till the blood is stratified, take the upper layer serum 10 μL, plus 30 μL physiological saline, shake it evenly; and take 10 μL the dilute serum and put into a EP tube, add 1 mL glucose (Glu) oxidase, shake it evenly, keep at 37° C. for 15 min, the sample (U) is to be measured. Then take the physiological saline and calibrator (c) 10 μL respectively, add 1 mL glucose oxidase, shake evenly, keep at 37° C. for 15 min, determine the absorbance (A) with 505 nm wavelength after adjusting the blank tube to zero. […]\n(§1) This experiment adopts the GOD-POD method for determination of serum glucose concentration, the principle of this method is POD in serum glucose is oxidized into D-gluconic acid in the presence of GOD, and generate H2O2; the latter and 4-amino antipyrine and phenol form red benzophenone imine under the effect of peroxidase (POD) benzophenone imine, the depth of the color of the ketone compounds is directly proportional to the content of glucose. Determine the absorbance values of the standard tube and the sample tube respectively, and then calculate the content of glucose."}, "[2]": {"test_system": "alloxan hyperglycemia model mice", "experiment": "Efficacy test of tablet, oral liquid, capsule, granules in alloxan hyperglycemia model mice (Test Cases 5-8)", "assay_type": "in vivo, KM mice", "conditions": "dose 0.5 mg", "method": "Take 80 KM mice, with a body weight of (20+2) g, half male and half female, and let them to adapt to the environment for 7 days. Randomly select 6 male mice and female mice as the blank control group, fasted and supplied with water for 18 h. Prepare 1.1% alloxan with physiological saline, and keep it in ice water bath. Carry out intraperitoneal injection according to a dose of 110 mg/kg, the mice of the control group are to be injected with physiological saline, and then fast them 12 hours, use the same modeling method in the second day. 3 days later (72 h, restore to normal diet), then fast 12 h, and then cut the tail to take a few drops of blood. The fasting blood glucose was measured with glucose oxidase method. The mice that have a blood glucose value greater than 11.1 mmol/L are mice that have been successfully modeled.\nAmong the 80 KM mice, 12 are as the blank control group, the remaining mice are used to modeling. After modeling, find the mice with the blood glucose values measured more than 11.1 mmol/L. In the experiment design process each group is set with 12 mice, the number of female mice are larger in the experimental results, so the number of female mice designed a dose is 6-8 only (8 with only statistical significance), the tails of some of the male model mice may be damaged, which is not conducive to the blood sampling in the next step, therefore it is not designed in this experimental group.\nUse surgical scissors to cut 2-3 mm of a mouse tail, press the tail to take a few drops of blood and place in the EP tube, first add 12 μL 15 g/L bi-potassium EDTA solution, high speed centrifuge it (10000 r/min) for 5 min. Wait till the blood is stratified, take the upper layer serum 10 μL, plus 30 μL physiological saline, shake it evenly; and take 10 μL the dilute serum and put into a EP tube, add 1 mL glucose (Glu) oxidase, shake evenly, keep at 37° C. for 15 min, the sample (U) is to be measured. Then take the physiological saline and calibrator (c) 10 μL respectively, add 1 mL glucose oxidase, shake it evenly, keep at 37° C. for 15 min, determine the absorbance (A) with 505 nm wavelength after adjusting the blank tube to zero. Sample Glu (mmol/L)=Au/Ac*Cc\nDetermine the fasting blood glucose values corresponding to the administration of 7 d, 14 d, 21 d and 28 d after the success of modeling (fasted but water is supplied for 12 h).\nas §1"}, "[3]": {"test_system": "3T3-L1 adipocyte IR model", "experiment": "Influence of glucose utilization on the 3T3-L1 adipocyte insulin resistance (IR) model", "assay_type": "cell-based, mouse", "protocol": "3T3-L1 mouse embryonic fibroblast cells, are derived from the Institute of Life Science of Chinese Academy of Sciences. Plant the 3T3-L1 preadipocytes into the 25 cm2 cell culture plate, add 6 ml normal culture medium, keep it at culture conditions of 37° C. and 5% CO2, change liquid in the next day. Pass or store it in freezing conditions after the 80% cell fused.\nInoculate the 3T3-L1 preadipocytes at the density of 5×10^3 in a 24-hole culture plate, wait until the cells grow to contact inhibition, replace the cell culture medium with differentiation liquid A (0.5 mmol/L IBMX, 0.1 umol/L DEX, 10 mg/L INS) and culture them for 48 h, then replace with the induction differentiation liquid (10 mg/L) to continuously culture for 48 h B, change the normal culture medium to continue culturing, and change the liquid once every 2 days, 90% of the above induced differentiation cells will have a mature phenotype after 6-8 days.\nAfter counting the 3T3-L1 cells in logarithmic growth phase, inoculate them at the density of 5*10^3 each hole onto 24-hole culture plate, then put the culture plate into the CO2 incubator, under the conditions of a temperature of 37° C., 5% CO2 and saturated humidity, culture them to growth inhibition, induction differentiation to mature adipocytes. Add the following processing factors: • The control group shall be continued with their normal culture medium (DMEM high glucose culture liquid containing 10% FBS) • The model group shall be given 1 umol DEX normal culture medium; • Other cells shall be used in each drug group experiment\nAfter counting the 3T3-L1 cell in logarithmic growth phase, inoculate each hole with density of 5×10^3 cells in 24-hole culture plate. According to the IR models preparation method of 2.3, divide the mature 3T3-L1 adipocytes into a normal culture group and model group, the model group can also be divided into a model control group and each drug group. The model group shall be given 1 umol DEX to react for 48 h. After the models are built, administer the drug as per the experimental groups and the concentration of drug, in 3 parallel plates. In 24 h, 48 h the cell morphologies shall be observed and take the supernatant to be tested on the semi automatic biochemical instrument, determine the glucose (GLU) content in the culture solution according to the descriptions of the kit."}}}
{"smiles": "C[C@H]1O[C@H](O[C@H]2[C@H](O)[C@@H](O)[C@@H](O[C@H]3[C@H](O)[C@@H](O)C(O)O[C@@H]3CO)O[C@@H]2CO)[C@H](O)[C@@H](O)[C@@H]1N[C@H]1C=C(CO)[C@@H](O)[C@H](O)[C@H]1O", "note": "(stereo partly shown) [Acarbose]", "values": [{"measurement": "Blood glucose level 7 d", "setting": "[1]; 7 d", "result": "19.23 ± 7.54", "unit": "mmol/L"}, {"measurement": "Blood glucose level 14 d", "setting": "[1]; 14 d", "result": "18.00 ± 6.99", "unit": "mmol/L"}, {"measurement": "Blood glucose level 21 d", "setting": "[1]; 21 d", "result": "19.99 ± 6.69", "unit": "mmol/L"}, {"measurement": "Blood glucose level 28 d", "setting": "[1]; 28 d", "result": "22.81 ± 7.72", "unit": "mmol/L"}, {"measurement": "Blood glucose level 7 d", "setting": "[2]; Table 8", "result": "19.23 ± 7.54", "unit": "mmol/L"}, {"measurement": "Blood glucose level 14 d", "setting": "[2]; Table 8", "result": "18.00 ± 6.99", "unit": "mmol/L"}, {"measurement": "Blood glucose level 21 d", "setting": "[2]; Table 8", "result": "19.99 ± 6.69", "unit": "mmol/L"}, {"measurement": "Blood glucose level 28 d", "setting": "[2]; Table 8", "result": "22.81 ± 7.72", "unit": "mmol/L"}, {"measurement": "Blood glucose level 7 d", "setting": "[2]; Table 9", "result": "19.23 ± 7.54", "unit": "mmol/L"}, {"measurement": "Blood glucose level 14 d", "setting": "[2]; Table 9", "result": "18.00 ± 6.99", "unit": "mmol/L"}, {"measurement": "Blood glucose level 21 d", "setting": "[2]; Table 9", "result": "19.99 ± 6.69", "unit": "mmol/L"}, {"measurement": "Blood glucose level 28 d", "setting": "[2]; Table 9", "result": "22.81 ± 7.72", "unit": "mmol/L"}, {"measurement": "Blood glucose level 7 d", "setting": "[2]; Table 10, in mmol/L", "result": "19.23 ± 7.54"}, {"measurement": "Blood glucose level 14 d", "setting": "[2]; Table 10, in mmol/L", "result": "18.00 ± 6.99"}, {"measurement": "Blood glucose level 21 d", "setting": "[2]; Table 10, in mmol/L", "result": "19.99 ± 6.69"}, {"measurement": "Blood glucose level 28 d", "setting": "[2]; Table 10, in mmol/L", "result": "22.81 ± 7.72"}, {"measurement": "Blood glucose level 7 d", "setting": "[2]; Table 11, in mmol/L", "result": "19.23 ± 7.54"}, {"measurement": "Blood glucose level 14 d", "setting": "[2]; Table 11, in mmol/L", "result": "18.00 ± 6.99"}, {"measurement": "Blood glucose level 21 d", "setting": "[2]; Table 11, in mmol/L", "result": "19.99 ± 6.69"}, {"measurement": "Blood glucose level 28 d", "setting": "[2]; Table 11, in mmol/L", "result": "22.81 ± 7.72"}]}
{"smiles": "CN(CCOc1ccc(CC2SC(=O)NC2=O)cc1)c1ccccn1", "note": "(stereo not shown) [ROG]", "values": [{"measurement": "Average 24 h GLU content", "setting": "[3]; 3.125 ug/ml, first series", "result": 22.24, "unit": "mmol/L"}, {"measurement": "Average 48 h GLU content", "setting": "[3]; 3.125 ug/ml, first series", "result": 20.46, "unit": "mmol/L"}, {"measurement": "Average 24 h GLU content", "setting": "[3]; 12.5 ug/ml, first series", "result": 22.04, "unit": "mmol/L"}, {"measurement": "Average 48 h GLU content", "setting": "[3]; 12.5 ug/ml, first series", "result": 21.67, "unit": "mmol/L"}, {"measurement": "Average 24 h GLU content", "setting": "[3]; 50 ug/ml, culture supernatant, first series (model control 23.08)", "result": 21.84, "unit": "mmol/L"}, {"measurement": "Average 48 h GLU content", "setting": "[3]; 50 ug/ml, culture supernatant, first series (model control 22.18)", "result": 20.53, "unit": "mmol/L"}, {"measurement": "Average 24 h GLU content", "setting": "[3]; 100 ug/ml, second series (model control 27.72)", "result": 25.38, "unit": "mmol/L"}, {"measurement": "Average 48 h GLU content", "setting": "[3]; 100 ug/ml, second series (model control 26.27)", "result": 24.64, "unit": "mmol/L"}]}
